Experiment in all cases: NCI one-dose assay
Test [1] deals with OVCAR-5. Format: cell-based. The conditions noted are these: Homo sapiens, OVCAR-5, Ovarian cancer, read-out: Cell growth inhibition %.
Test [2] deals with SF-268. It counts as cell-based. The conditions noted are these: Homo sapiens, SF-268, CNS cancer, read-out: Cell growth inhibition %.
Test [3] concerns NCI/ADR-RES. Format: cell-based. Conditions: Homo sapiens, Ovarian cancer, read-out: Cell growth inhibition %.
Test [4] has as its system NCI-H23. Format: cell-based. Conditions: Homo sapiens, NCI-H23, Non-small cell lung cancer, read-out: Cell growth inhibition %.
Test [5] concerns MOLT-4. It counts as cell-based. The conditions noted are these: Homo sapiens, MOLT-4, Leukemia, read-out: Cell growth inhibition %.
Test [6] relates to OVCAR-3. It counts as cell-based. The conditions noted are these: Homo sapiens, OVCAR-3, Ovarian cancer, read-out: Cell growth inhibition %.
The test system of test [7] is COLO 205. Format: cell-based. The conditions noted are these: Homo sapiens, COLO 205, Colon cancer, read-out: Cell growth inhibition %.
Test [8] deals with HCT-116. Format: cell-based. The conditions noted are these: Homo sapiens, HCT-116, Colon cancer, read-out: Cell growth inhibition %.
The subject of test [9] is SW-620. It counts as cell-based. Conditions: Homo sapiens, SW-620, Colon cancer, read-out: Cell growth inhibition %.
Test [10] relates to HOP-62. It counts as cell-based. Conditions: Homo sapiens, HOP-62, Non-small cell lung cancer, read-out: Cell growth inhibition %.
Test [11] concerns RXF 393. Format: cell-based. Conditions: Homo sapiens, RXF 393, Renal cancer, read-out: Cell growth inhibition %.
The test system of test [12] is SK-MEL-2. It counts as cell-based. Conditions: Homo sapiens, SK-MEL-2, Melanoma, read-out: Cell growth inhibition %.
In test [13] the test system is DU-145. It counts as cell-based. The conditions noted are these: Homo sapiens, DU-145, Prostate cancer, read-out: Cell growth inhibition %.
Test [14] relates to SN12C. Format: cell-based. The conditions noted are these: Homo sapiens, Renal cancer, read-out: Cell growth inhibition %.
The test system of test [15] is CCRF-CEM. It counts as cell-based. Conditions: Homo sapiens, Leukemia, read-out: Cell growth inhibition %.
Test [16] relates to EKVX. Format: cell-based. Conditions: Homo sapiens, Non-small cell lung cancer, read-out: Cell growth inhibition %.
The subject of test [17] is PC-3. It counts as cell-based. Conditions: Homo sapiens, PC-3, Prostate cancer, read-out: Cell growth inhibition %.
Test [18] concerns HCT-15. Format: cell-based. Conditions: Homo sapiens, HCT-15, Colon cancer, read-out: Cell growth inhibition %.
Test [19] deals with SNB-19. It counts as cell-based. Conditions: Homo sapiens, SNB-19, CNS cancer, read-out: Cell growth inhibition %.
For test [20], the system named is HOP-92. It counts as cell-based, human. Conditions: for inhibition at 10 µM: Homo sapiens, HOP-92, HOP-92, Non-small cell lung cancer, read-out: Cell growth inhibition %. As for the experimental part:
(§1) The National Cancer Institute (NCI), Bethesda, USA, selected the final compounds 6a–j and 7a–j for in vitro anticancer screening. An initial in vitro single-dose anticancer experiment was performed with the entire NCI 60 cell lines derived from nine tumor subpanel cancer cell lines. The results for each compound were illustrated as a mean graph showing the percentage growth of treated cells compared to untreated control cells (see Supplementary Materials).
(§2) The NCI anticancer screening process has been thoroughly detailed. The Drug Evaluation Branch of the National Cancer Institute in Bethesda, […], USA, established the procedure and conducted the anticancer assay on 60 human tumor cell lines from nine neoplastic cancers.

The test system of test [21] is 786-0. Format: cell-based, human. The conditions noted are these: Homo sapiens, 786-0, 786-0, Renal cancer, read-out: Cell growth inhibition %. As for the experimental part: as §1, §2
Test [22] concerns UO-31. It counts as cell-based, human. Conditions: for inhibition at 10 µM: Homo sapiens, UO-31, UO-31, Renal cancer, read-out: Cell growth inhibition %; for Cell growth inhibition %: UO-31, Renal cancer, 10 µM. As for the experimental part:
as §1, §2

Consider `C=CCn1c(SCC(=O)c2ccc(C)cc2)nnc1-c1c[nH]c2ccccc12` [Compound 6c, 2-((4-allyl-5-(1H-indol-3-yl)-4H-1,2,4-triazol-3-yl)thio)-1-(p-tolyl)ethanone], for which the inhibition at 10 µM in test [1] is -2.57%; in [2], -3.82%; in [3], 4.65%; in test [4], -5.98%; in test [5] it was 9.13%; in [6], -13.1%. For the same molecule, the inhibition at 10 µM was -25.9% in test [7]; 9.79% in test [8]; -0.34% in [9]; 9.23% in [10]; -0.07% in [11]; 1.54% in test [12]. In addition, the inhibition at 10 µM in test [13] was -8.9%; in [14], 5.47%; in test [15] it was 9.66%; in test [16], 8.94%; in test [17], 22.2%; in test [18], 6.36%. The inhibition at 10 µM in test [19] came out at 3.56%; in test [20] it was 50%; in test [21], 2.26%; in test [22], 29.7%. Further, in test [20] (HOP-92, Non-small cell lung cancer, 10 µM), the “Cell growth inhibition %” value turned out to be 49.73%.
Turning to `C=CCn1c(SC/C(=N\O)c2ccc(C)cc2)nnc1-c1c[nH]c2ccccc12` [Compound 7c, (Z)-2-((4-allyl-5-(1H-indol-3-yl)-4H-1,2,4-triazol-3-yl)thio)-1-(p-tolyl)ethanone Oxime], the inhibition at 10 µM is 1.32% in [1]; 3.63% in [2]; 1.27% in test [3]; 9.29% in test [4]; 20.4% in test [5]; -6.11% in [6]. Moreover, the inhibition at 10 µM in test [7] is -6.48%; in [8], 22.3%; in test [9], 4.06%; in test [10], 8.72%; in test [11], -5.46%; in test [12], 1.01%. Besides, the inhibition at 10 µM in test [13] was -2.38%; in [14], 11.7%; in test [15], 2.91%; in test [16], 17.7%; in test [17], 7.62%; in test [18] it was 11.3%. The inhibition at 10 µM in test [19] is 8.04%; in [20] it was 7.98%; in test [21], -2.2%; in test [22] it was 35%. The “Cell growth inhibition %” value in test [22] worked out at 34.99%.
As for `C=CCn1c(SCC(=O)c2ccccc2)nnc1-c1c[nH]c2ccccc12` [Compound 6a, 2-((4-Allyl-5-(1H-indol-3-yl)-4H-1,2,4-triazol-3-yl)thio)-1-phenylethanone], the inhibition at 10 µM in test [1] is -3.17%; in test [2] it was -1.91%; in [3], 2.62%; in [4] it was 0.39%; in test [5], 7.17%; in test [6], -14.8%. Also, the inhibition at 10 µM in test [7] is -22.1%; in [8], 2.55%; in [9] it was 3.89%; in test [10], 7.46%; in test [11], -2.2%; in [12], -4.98%. Moreover, the inhibition at 10 µM in test [13] was -9.05%; in test [14], 7.27%; in [15] it was 8.76%; in [16], 4.22%; in [17] it was 10.9%; in test [18] it was 4%. The inhibition at 10 µM in test [19] was 1.66%; in test [20], 18.7%; in test [21] it was -1.07%; in test [22], 35%. The “Cell growth inhibition %” value in test [22] came to 34.27%.

The values above are taken from PMC11859928, “Design, Synthesis, and Antiproliferative Activity of Novel Indole/1,2,4-Triazole Hybrids as Tubulin Polymerization Inhibitors” (Pharmaceuticals, 2025).
